# Test results from US20240050407A1, “METHODS FOR DELAY OF EJACULATION IN HUMAN MALES” (priority 2020, published 2024).
# How the values were obtained:
# Type in all cases: in vivo
# [1] = system: para-chloroamphetamine (PCA)-induced ejaculation model in anaesthetized Wistar rats; test: Rat para-chloroamphetamine (PCA)-induced ejaculation model (ejaculation, latency, seminal vesicle pressure); conditions: for Seminal vesicle pressure response vs vehicle, FIG. 10, FIG. 11 / Ejaculation latency vs vehicle, FIG. 9: 20 mg/kg or 10 mg/kg IP 1 h before PCA
# Method: Experiments were performed to assess the effect of an acute treatment of alkaloids, mesembrine, mesembrenone, mesembrenol and mesembranol, at their maximal tolerable dose (MTD) on ejaculation latency in a para-chloroamphetamine (PCA)-induced ejaculation model in anaesthetized Wistar rats.
# Adult male Wistar rats (Charles-River, France, 10-11 weeks old) were housed at least 10 days prior to the beginning of the experiments with free access to regular diet and water and maintained on an inversed 12 hour dark/light cycle (9:00/21:00). All procedures were performed in accordance with the legislation on the use of laboratory animals (NIH publication N°85-23, revised 1996) and Animal Care Regulations in force in France as of 1988 (authorization from competent French Ministry of Agriculture—Agreement No. B78-423-1, July 2017).
# Rats received a single administration by intraperitoneal (IP) route of either vehicle, mesembrine, mesembrenone, mesembrenol, or mesembranol 1 hour before the in vivo evaluation of PCA-induced ejaculation as follows:
# Part 1: Rats received a single IP injection of either vehicle control (0.5% hydroxypropyl methylcellulose (HPMC) in sterile water, n=10), mesembrine at 20 mg/kg (n=9), 10 mg/kg (n=11), 2 mg/kg (n=12), 200 μg/kg (n=12) and 20 μg/kg (n=10) 1 hour prior to administration of PCA. Treatment groups for Part I are outlined below in Table 2:
# Part 2: Rats received a single IP injection of mesembrenone at 20 mg/kg (n=10). Treatment groups for Part 2 are outlined in Table 3.
# Part 3: Rats received single IP injection of mesembrenol at 20 mg/kg (n=4) or 10 mg/kg (n=6) or mesembranol at 20 mg/kg (n==6) or 10 mg/kg (n=6). Treatment for Part 3 are outlined in Table 4.
# After treatment administration, the rats underwent an evaluation of their ejaculation function induced by PCA administration. Thus, the expulsion of seminal plug(s) and seminal vesicle pressure (SVP) increase was evaluated. At the end of experimental period, the rats were euthanized by an intracardiac injection of pentobarbital (Eutasol®, Centravet, France).
# Drug Preparation. Alkaloids were diluted to a 100 mg/mL final concentration (stock solution) and mixed by vortex. Then, aliquots per rat were prepared and stored at −20° C. until use. The day of experiment, 1 aliquot per rat was thawed and diluted to the desired concentration. The volume of administration was either 2 mL/kg for the IP administration or 5 mL/kg for the oral gavage, in line with good practice for administration volume in rat.
# Ejaculation was induced by intraperitoneal administration of P-chloroamphetamine (PCA) at 5 mg/kg in anesthetized rats according to previously described methods (Clement el al., Role of peripheral innervation in p-chloroamphetamine-induced ejaculation in anesthetized rats. J Androl 2006; 27:381-389). PCA is an amphetamine derivative that liberates catecholamines and serotonin from monoaminergic nerve terminals. Systemic administration of PCA has been reported to induce ejaculation in both conscious (Humphries et al, 1981; Rènyi, 1985) and anesthetized (Yonezawa et al, 2000) rats.
# Seminal vesicle pressure (SW) was measured as a physiological marker for the emission phase of ejaculation (Clement P, Giuliano F. Physiology and Pharmacology of Ejaculation. Basic Clint Pharmacol Toxicol 201.6 119 Suppl 3:18-25),
# Rats were anesthetized and their temperature maintained at 37° C. using a homoeothermic blanket. The carotid artery was catheterized with polyethylene tubings filled with heparinized saline (50 UI/ml) to record continuously blood pressure (BP) via a pressure transducer (Elcomatic 750, Glasgow, UK). Pressure was recorded using specific data acquisition software (Elphy, CNRS, France).
# For measuring SVP, a suprapubic midline incision was performed to expose seminal vesicles and a polyethylene catheter (0.50 mm), filled with mineral oil, was inserted into one seminal vesicle through the apex and connected to a pressure transducer (Elcomatic 750, Glasgow, UK). […]
# [2] = system: healthy human male subjects; test: Ejaculation latency in healthy human males after pure mesembrine
# Method: Experiments were performed to determine the effects of pure mesembrine on ejaculation in male subjects. 0.5 mg, 1 mg, 2.5 mg, and 5 mg doses of pure mesembrine (Cayman Chemical Company, MI, USA) were administered by oral, nasal or sublingual routes to healthy human male subjects. The formulation for oral (swallowed) and sublingual (held under tongue for 5 minutes) was 2 mg mesembrine/mL 40% aqueous for oral and sublingual. The nasal spray formulation was 0.4 mg mesembrine/mL 1% w/w NaCl saline delivered via metered nasal spray device. Mesembrine was administered 20 minutes prior to sexual activity. The sexual activity was either solo masturbation (“self”) or partnered intercourse with a female partner (“partnered”). Latency time of ejaculation was measured and calculated by time from start of sexual activity to ejaculation. […] In all test cases, ejaculation coincided with orgasm. In all cases where ejaculation was not achieved, orgasm was also not achieved.
# Wistar rats = test: Maximal tolerable dose (MTD) in rats; conditions: rat, single IP administration
# [3] = system: healthy human male subjects; test: Ejaculation latency in healthy human males after pure mesembrine; conditions: Subject D, 70 kg; 0.05 mg; Self; nasal spray (in aqueous 1% w/w NaCl)
# [4] = mesembrine 20 μg/kg single IP 1 h before PCA, 30-min observation
# [5] = mesembrine 200 μg/kg single IP 1 h before PCA, 30-min observation
# [6] = mesembrine 2 mg/kg single IP 1 h before PCA, 30-min observation
# [7] = mesembrine 10 mg/kg single IP 1 h before PCA, 30-min observation
# [8] = mesembrine 20 mg/kg single IP 1 h before PCA, 30-min observation
compound,measurement,setting,value
"COc1ccc([C@@]23CCC(=O)C[C@@H]2N(C)CC3)cc1OC [Mesembrine, mesembrine]",ejaculation during the 30-minute observation period (in words),[1]; 20 mg/kg IP 1 h before PCA,did not ejaculate
same,rats that did not ejaculate during the 30-min observation period following PCA injection,[1]; 20 mg/kg IP 1 h before PCA,100%
same,"Ejaculation latency (ejaculatory response vs vehicle control), FIG. 3",[1]; all dosage conditions tested (20 μg/kg to 20 mg/kg IP),delayed ejaculatory response
same,"Seminal vesicle pressure response assessed as amplitude and AUC vs vehicle control, FIG. 4, FIG. 5",[1]; all mesembrine treatment cases (20 μg/kg to 20 mg/kg IP),decreased
same,N of ejaculating rats,[1]; [4],9/9
same,N of rats not ejaculating,[1]; [4],0/9
same,Percentage of ejaculating rats,[1]; [4],100%
same,N of ejaculating rats,[1]; [5],10/11
same,N of rats not ejaculating,[1]; [5],1/11
same,Percentage of ejaculating rats,[1]; [5],91%
same,N of ejaculating rats,[1]; [6],4/12
same,N of rats not ejaculating,[1]; [6],8/12
same,Percentage of ejaculating rats,[1]; [6],33%
same,N of ejaculating rats,[1]; [7],7/12
same,N of rats not ejaculating,[1]; [7],5/12
same,Percentage of ejaculating rats,[1]; [7],58%
same,N of ejaculating rats,[1]; [8],0/10
same,N of rats not ejaculating,[1]; [8],10/10
same,Percentage of ejaculating rats,[1]; [8],0%
same,Qualitative experience,"[2]; Subject A, 77 kg, 0.5 mg, Self, sublingual (5 min under tongue)",Orgasm with drug was more intense than average
same,Qualitative experience,"[2]; Subject A, 77 kg, 1 mg, Self, sublingual (5 min under tongue)",Onset after dosing with drug felt at around 9 min;
same,Qualitative experience,"[2]; Subject B, 75 kg, 0.5 mg, Self, oral",Significant lengthening of latency time noticed
same,Qualitative experience,"[2]; Subject C, 100 kg, 0.5 mg, Self, oral",Did not complete ejaculation as an effect of drug.
same,Qualitative experience,"[2]; Subject D, 70 kg, 1 mg, Self, oral",Satisfactory dosing to maintain control and easily
same,Qualitative experience,"[2]; Subject D, 70 kg, 2.5 mg, Partnered, oral",Increased satisfaction from female partner noted.
same,Qualitative experience,"[2]; Subject D, 70 kg, 5 mg, Partnered, oral",Did not complete ejaculation as an effect of drug.
same,ejaculation latency (in words),"[2]; all doses tested, oral, nasal or sublingual, 20 minutes prior to sexual activity",extended the ejaculation latency at all doses tested
same,maximal tolerable dose (MTD),Wistar rats,20 mg/kg (MTD)
same,Qualitative experience,[3],Effects noticed more rapidly than oral dosing.
COc1ccc([C@@]23C=CC(=O)C[C@@H]2N(C)CC3)cc1OC [mesembrenone],"Seminal vesicle pressure response vs vehicle, FIG. 7, FIG. 8",[1]; 20 mg/kg IP 1 h before PCA,decreased
same,"Ejaculation latency vs vehicle, FIG. 6","[1]; 20 mg/kg IP 1 h before PCA, 30-min observation",delayed ejaculation
COc1ccc([C@@]23CC[C@@H](O)C[C@@H]2N(C)CC3)cc1OC [mesembranol],"Seminal vesicle pressure response vs vehicle, FIG. 10, FIG. 11",[1],decreased
same,"Ejaculation latency vs vehicle, FIG. 9",[1]; 30-min observation,delayed ejaculation
COc1ccc(C23C=CC(O)CC2N(C)CC3)cc1OC (centres unmarked) [mesembrenol],"Seminal vesicle pressure response vs vehicle, FIG. 10, FIG. 11",[1],decreased
same,"Ejaculation latency vs vehicle, FIG. 9",[1]; 30-min observation,delayed ejaculation
